# Active and inactive are the calls of the source. No rule for the calls is given here.
# Test system: CCRIS mutagenicity, Ames/micronucleus/aberration tests
# Assay: CCRIS mutagenicity studies
smiles,measurement,setting,value
Cc1ccccc1N,mutagenic call,"End Point: IN VIVO MICRONUCLEUS, Test System: HEPATOCYTES, Species: RAT, Strain/Sex: FISHER 344 OR SD/MALE, Route: ORAL OR IP",inactive; negative
same,mutagenic call,"End Point: IN VIVO MICRONUCLEUS, Test System: PERIPHERAL BLOOD RETICULOCYTES, Species: RAT, Strain/Sex: FISHER 344 OR SD/MALE, Route: ORAL OR IP",active; positive
same,mutagenic call,"Test System: AMES SALMONELLA TYPHIMURIUM, Strain/Indicator: TA97, Metabolic Activation: HAMSTER LIVER S-9, AROCLOR 1254 (10 OR 30%), Method: PREINCUBATION",inactive; negative
same,mutagenic call,"Test System: AMES SALMONELLA TYPHIMURIUM, Strain/Indicator: TA97, Metabolic Activation: NONE, Method: PREINCUBATION",inactive; negative
same,mutagenic call,"Test System: AMES SALMONELLA TYPHIMURIUM, Strain/Indicator: TA97, Metabolic Activation: NONE, Method: STANDARD PLATE",inactive; negative
same,mutagenic call,"Test System: AMES SALMONELLA TYPHIMURIUM, Strain/Indicator: TA97, Metabolic Activation: RAT LIVER S-9, AROCLOR 1254 (10 OR 30%), Method: PREINCUBATION",inactive; negative
same,mutagenic call,"Test System: AMES SALMONELLA TYPHIMURIUM, Strain/Indicator: TA97, Metabolic Activation: RAT, LIVER, S-9, PHENOBARBITAL AND 5,6-BENZOFLAVONE, Method: PREINCUBATION",inactive; negative
same,mutagenic call,"Test System: AMES SALMONELLA TYPHIMURIUM, Strain/Indicator: TA97, Metabolic Activation: S-9, Method: STANDARD PLATE",inactive; negative
same,mutagenic call,"Test System: AMES SALMONELLA TYPHIMURIUM, Strain/Indicator: TA98, Metabolic Activation: HAMSTER LIVER S-9, AROCLOR 1254 (10 OR 30%), Method: PREINCUBATION",inactive; negative
same,mutagenic call,"Test System: AMES SALMONELLA TYPHIMURIUM, Strain/Indicator: TA98, Metabolic Activation: HAMSTER, LIVER, S-9, AROCLOR 1254 (10%), Method: PREINCUBATION",inactive; negative
same,mutagenic call,"Test System: AMES SALMONELLA TYPHIMURIUM, Strain/Indicator: TA98, Metabolic Activation: HAMSTER, LIVER, S-9, AROCLOR 1254 (30%), Method: PREINCUBATION",inactive; negative
same,mutagenic call,"Test System: AMES SALMONELLA TYPHIMURIUM, Strain/Indicator: TA98, Metabolic Activation: HAMSTER, LIVER, S-9, SODIUM PHENOBARBITAL AND 5,6-BENZOFLAVONE, Method: PREINCUBATION",inactive; negative
same,mutagenic call,"Test System: AMES SALMONELLA TYPHIMURIUM, Strain/Indicator: TA98, Metabolic Activation: HAMSTER, LIVER, S-9, Method: PREINCUBATION (PRIVAL METHOD)",active; positive
same,mutagenic call,"Test System: AMES SALMONELLA TYPHIMURIUM, Strain/Indicator: TA98, Metabolic Activation: NONE, Method: PREINCUBATION",inactive; negative
same,mutagenic call,"Test System: AMES SALMONELLA TYPHIMURIUM, Strain/Indicator: TA98, Metabolic Activation: NONE, Method: STANDARD PLATE",inactive; negative
same,mutagenic call,"Test System: AMES SALMONELLA TYPHIMURIUM, Strain/Indicator: TA98, Metabolic Activation: RAT LIVER S-9, AROCLOR 1254 (10 OR 30%), Method: PREINCUBATION",inactive; negative
same,mutagenic call,"Test System: AMES SALMONELLA TYPHIMURIUM, Strain/Indicator: TA98, Metabolic Activation: RAT, LIVER, S-9, AROCLOR 1254 (10%), Method: PREINCUBATION",inactive; negative
same,mutagenic call,"Test System: AMES SALMONELLA TYPHIMURIUM, Strain/Indicator: TA98, Metabolic Activation: RAT, LIVER, S-9, AROCLOR 1254 (30%), Method: PREINCUBATION",inactive; negative
same,mutagenic call,"Test System: AMES SALMONELLA TYPHIMURIUM, Strain/Indicator: TA98, Metabolic Activation: RAT, LIVER, S-9, AROCLOR 1254 + 200 UG NORHARMAN, Method: STANDARD PLATE",active; positive
same,mutagenic call,"Test System: AMES SALMONELLA TYPHIMURIUM, Strain/Indicator: TA98, Metabolic Activation: RAT, LIVER, S-9, AROCLOR 1254, Method: PREINCUBATION",inactive; negative
same,mutagenic call,"Test System: AMES SALMONELLA TYPHIMURIUM, Strain/Indicator: TA98, Metabolic Activation: RAT, LIVER, S-9, PHENOBARBITAL AND 5,6-BENZOFLAVONE, Method: PREINCUBATION",inactive; negative
same,mutagenic call,"Test System: AMES SALMONELLA TYPHIMURIUM, Strain/Indicator: TA98, Metabolic Activation: S-9, Method: STANDARD PLATE",inactive; negative
same,mutagenic call,"Test System: AMES SALMONELLA TYPHIMURIUM, Strain/Indicator: TA100, Metabolic Activation: HAMSTER LIVER S-9, AROCLOR 1254 (10%), Method: PREINCUBATION",inactive; negative
same,mutagenic call,"Test System: AMES SALMONELLA TYPHIMURIUM, Strain/Indicator: TA100, Metabolic Activation: HAMSTER LIVER S-9, AROCLOR 1254 (30%), Method: PREINCUBATION",active; positive
same,mutagenic call,"Test System: AMES SALMONELLA TYPHIMURIUM, Strain/Indicator: TA100, Metabolic Activation: HAMSTER, LIVER, S-9, AROCLOR 1254 (10%), Method: PREINCUBATION",inactive; negative
same,mutagenic call,"Test System: AMES SALMONELLA TYPHIMURIUM, Strain/Indicator: TA100, Metabolic Activation: HAMSTER, LIVER, S-9, AROCLOR 1254 (30%), Method: PREINCUBATION",active; positive
same,mutagenic call,"Test System: AMES SALMONELLA TYPHIMURIUM, Strain/Indicator: TA100, Metabolic Activation: HAMSTER, LIVER, S-9, SODIUM PHENOBARBITAL AND 5,6-BENZOFLAVONE, Method: PREINCUBATION",inactive; negative
same,mutagenic call,"Test System: AMES SALMONELLA TYPHIMURIUM, Strain/Indicator: TA100, Metabolic Activation: NONE, Method: PREINCUBATION",inactive; negative
same,mutagenic call,"Test System: AMES SALMONELLA TYPHIMURIUM, Strain/Indicator: TA100, Metabolic Activation: NONE, Method: STANDARD PLATE",inactive; negative
same,mutagenic call,"Test System: AMES SALMONELLA TYPHIMURIUM, Strain/Indicator: TA100, Metabolic Activation: RAT LIVER S-9, AROCLOR 1254 (10 OR 30%), Method: PREINCUBATION",inactive; negative
same,mutagenic call,"Test System: AMES SALMONELLA TYPHIMURIUM, Strain/Indicator: TA100, Metabolic Activation: RAT, LIVER, S-9, AROCLOR 1254 (10%), Method: PREINCUBATION",inactive; negative
same,mutagenic call,"Test System: AMES SALMONELLA TYPHIMURIUM, Strain/Indicator: TA100, Metabolic Activation: RAT, LIVER, S-9, AROCLOR 1254 (30%), Method: PREINCUBATION",inactive; negative
same,mutagenic call,"Test System: AMES SALMONELLA TYPHIMURIUM, Strain/Indicator: TA100, Metabolic Activation: RAT, LIVER, S-9, AROCLOR 1254, Method: STANDARD PLATE",inactive; negative
same,mutagenic call,"Test System: AMES SALMONELLA TYPHIMURIUM, Strain/Indicator: TA100, Metabolic Activation: RAT, LIVER, S-9, PHENOBARBITAL AND 5,6-BENZOFLAVONE, Method: PREINCUBATION",inactive; negative
same,mutagenic call,"Test System: AMES SALMONELLA TYPHIMURIUM, Strain/Indicator: TA100, Metabolic Activation: S-9, Method: STANDARD PLATE",inactive; negative
same,mutagenic call,"Test System: AMES SALMONELLA TYPHIMURIUM, Strain/Indicator: TA102, Metabolic Activation: HAMSTER, LIVER, S-9, SODIUM PHENOBARBITAL AND 5,6-BENZOFLAVONE, Method: PREINCUBATION",inactive; negative
same,mutagenic call,"Test System: AMES SALMONELLA TYPHIMURIUM, Strain/Indicator: TA102, Metabolic Activation: NONE, Method: PREINCUBATION",inactive; negative
same,mutagenic call,"Test System: AMES SALMONELLA TYPHIMURIUM, Strain/Indicator: TA102, Metabolic Activation: NONE, Method: STANDARD PLATE",inactive; negative
same,mutagenic call,"Test System: AMES SALMONELLA TYPHIMURIUM, Strain/Indicator: TA102, Metabolic Activation: S-9, Method: STANDARD PLATE",inactive; negative

# Source: PubChem BioAssay AID1259407 (Chemical Carcinogenesis Research Information System (CCRIS), 2018)
